# Molecular target: T1, human ENT1 (Homo sapiens, UniProt Q99808)
# T1 sequence (Q99808 1-456): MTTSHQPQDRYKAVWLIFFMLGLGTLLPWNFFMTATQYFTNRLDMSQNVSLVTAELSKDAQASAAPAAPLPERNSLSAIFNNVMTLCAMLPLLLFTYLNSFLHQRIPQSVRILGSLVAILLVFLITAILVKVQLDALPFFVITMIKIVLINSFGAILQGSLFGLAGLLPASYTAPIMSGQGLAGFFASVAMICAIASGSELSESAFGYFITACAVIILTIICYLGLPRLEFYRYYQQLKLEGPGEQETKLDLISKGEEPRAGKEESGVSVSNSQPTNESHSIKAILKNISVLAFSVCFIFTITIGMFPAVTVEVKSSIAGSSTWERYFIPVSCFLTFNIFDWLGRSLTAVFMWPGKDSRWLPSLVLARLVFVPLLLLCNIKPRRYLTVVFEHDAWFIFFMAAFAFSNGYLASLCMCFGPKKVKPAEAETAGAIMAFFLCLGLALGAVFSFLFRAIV
# Assay: ENT1 binding assay (competition with Sahenta-DY647 on JAR cells)
# Set-up: JAR cells expressing ENT1 were bought from ATCC; host or cells: JAR cells
# Settings: binned IC50
# In short: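 JAR cells were incubated with test compounds and the fluorescent ligand Sahenta-DY647 in competition. Plates were washed twice by centrifugation (4 min, 400 rcf, 4 °C). Binding potency was derived from the final fluorescence.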
row,SMILES,IC50 [nM]
1,"COCCN(CCOC)c1nc(N2CC(O)(C(F)(F)F)C2)c2nc(N(CCOC)CCOC)nc(N3CCN(C)C(=O)C3)c2n1 [Compound 189, 4-(2,6-bis(bis(2-methoxyethyl)amino)-8-(3-hydroxy-3-(trifluoromethyl)azetidin-1-yl)pyrimido[5,4-d]pyrimidin-4-yl)-1-methylpiperazin-2-one]",100 to 500
2,"COCCN(CCOC)c1nc(N2CCC(OC)CC2)c2nc(N(CCOC)CCOC)nc(NCC3CCCC3)c2n1 [Compound 55, N4-(cyclopentylmethyl)-N2,N2,N6,N6-tetrakis(2-methoxyethyl)-8-(4-methoxypiperidin-1-yl)pyrimido[5,4-d]pyrimidine-2,4,6-triamine]",100 to 500
3,"COCCN(CCOC)c1nc(N2CCc3cn[nH]c3C2)c2nc(N(CCOC)CCOC)nc(N3CCN(C)C(=O)C3)c2n1 [Compound 259, 4-(2,6-bis(bis(2-methoxyethyl)amino)-8-(1,4,5,7-tetrahydro-6H-pyrazolo[3,4-c]pyridin-6-yl)pyrimido[5,4-d]pyrimidin-4-yl)-1-methylpiperazin-2-one]",< 100
4,"COCCN(CCOC)c1nc(N2CCN(c3nccs3)CC2)c2nc(N(CCO)CCO)nc(N3CCCCC3)c2n1 [Compound 38, 2,2′-((6-(bis(2-methoxyethyl)amino)-4-(piperidin-1-yl)-8-(4-(thiazol-2-yl)piperazin-1-yl)pyrimido[5,4-d]pyrimidin-2-yl)azanediyl)diethanol]",100 to 500
5,"COCCN(CCOC)c1nc(N2CCC(OC)CC2)c2nc(N(CCOC)CCOC)nc(NCc3ccnc(N)c3)c2n1 [Compound 147, N4-((2-aminopyridin-4-yl)methyl)-N2,N2,N6,N6-tetrakis(2-methoxyethyl)-8-(4-methoxypiperidin-1-yl)pyrimido[5,4-d]pyrimidine-2,4,6-triamine]",500 to 1000
6,"COCCN(CCOC)c1nc(N2CCc3oncc3C2)c2nc(N(CCOC)CCOC)nc(N3CCN(C)C(=O)C3)c2n1 [Compound 261, 4-(2,6-bis(bis(2-methoxyethyl)amino)-8-(6,7-dihydroisoxazolo[4,5-c]pyridin-5(4H)-yl)pyrimido[5,4-d]pyrimidin-4-yl)-1-methylpiperazin-2-one]",< 100
7,"COCCN(CCOC)c1nc(N2CCN(C)C(=O)C2)c2nc(N(CCOC)CCOC)nc(N(C)Cc3ccc(F)c(F)c3)c2n1 [Compound 239, 4-(2,6-bis(bis(2-methoxyethyl)amino)-8-((3,4-difluorobenzyl)(methyl)amino)pyrimido[5,4-d]pyrimidin-4-yl)-1-methylpiperazin-2-one]",< 100
8,"COCCN(CCOC)c1nc(N2CCN(c3nccc(C)n3)CC2)c2nc(N(CCOC)CCOC)nc(N3CCC(OC)CC3)c2n1 [Compound 122, N2,N2,N6,N6-tetrakis(2-methoxyethyl)-4-(4-methoxypiperidin-1-yl)-8-(4-(4-methylpyrimidin-2-yl)piperazin-1-yl)pyrimido[5,4-d]pyrimidine-2,6-diamine]",100 to 500
9,"CCCN(C)c1nc(N(CCOC)CCOC)nc2c(N3CCn4ncnc4C3)nc(N(CCOC)CCOC)nc12 [Compound 10, 8-(5,6-dihydro-[1,2,4]triazolo[1,5-a]pyrazin-7(8H)-yl)-N2,N2,N6,N6-tetrakis(2-methoxyethyl)-N4-methyl-N4-propylpyrimido[5,4-d]pyrimidine-2,4,6-triamine]",100 to 500
10,"COCCN(CCOC)c1nc(N2CCn3nncc3C2)c2nc(N(CCOC)CCOC)nc(N3CCN(C)C(=O)C3)c2n1 [Compound 251, 4-(2,6-bis(bis(2-methoxyethyl)amino)-8-(6,7-dihydro-[1,2,3]triazolo[1,5-a]pyrazin-5(4H)-yl)pyrimido[5,4-d]pyrimidin-4-yl)-1-methylpiperazin-2-one]",100 to 500
11,"COCCN(CCOC)c1nc(N2CCN(C3CC3)C(=O)C2)c2nc(N(CCO)CCO)nc(N3CCC(OC)CC3)c2n1 [Compound 316, 4-(6-(bis(2-hydroxyethyl)amino)-2-(bis(2-methoxyethyl)amino)-8-(4-methoxypiperidin-1-yl)pyrimido[5,4-d]pyrimidin-4-yl)-1-cyclopropylpiperazin-2-one]",500 to 1000
12,"COCCN(Cc1ccc(OC)c(OC)c1OC)c1nc(N2CCC(OC)CC2)c2nc(N(CCO)CCO)nc(N3CCN(C)C(=O)C3)c2n1 [Compound 304, 4-(2-(bis(2-hydroxyethyl)amino)-6-((2-methoxyethyl)(2,3,4-trimethoxybenzyl)amino)-8-(4-methoxypiperidin-1-yl)pyrimido[5,4-d]pyrimidin-4-yl)-1-methylpiperazin-2-one]",< 100
13,"COCCN(CCOC)c1nc(N2CCC(OC)CC2)c2nc(N(CCOC)CCOC)nc(NCC(C)C)c2n1 [Compound 127, N4-isobutyl-N2,N2,N6,N6-tetrakis(2-methoxyethyl)-8-(4-methoxypiperidin-1-yl)pyrimido[5,4-d]pyrimidine-2,4,6-triamine]",100 to 500
14,"COCCN(CCOC)c1nc(N2CCN(C)C(=O)C2)c2nc(N(CCOC)CCOC)nc(N3CCN(c4ncn(C)n4)CC3)c2n1 [Compound 216, 4-(2,6-bis(bis(2-methoxyethyl)amino)-8-(4-(1-methyl-1H-1,2,4-triazol-3-yl)piperazin-1-yl)pyrimido[5,4-d]pyrimidin-4-yl)-1-methylpiperazin-2-one]",100 to 500
15,"COCCN(CCOC)c1nc(N2CCC(OC)CC2)c2nc(OCc3ccc(C)nc3)nc(N3CCC(OC)CC3)c2n1 [Compound 263, N,N-bis(2-methoxyethyl)-4,8-bis(4-methoxypiperidin-1-yl)-6-((6-methylpyridin-3-yl)methoxy)pyrimido[5,4-d]pyrimidin-2-amine]",100 to 500
16,"COCCN(CCOC)c1nc(N2CCC(OC)CC2)c2nc(N(CCOC)Cc3ccc(OC)c(OC)c3OC)nc(N3CCC(OC)CC3)c2n1 [Compound 183, N2,N2,N6-tris(2-methoxyethyl)-4,8-bis(4-methoxypiperidin-1-yl)-N6-(2,3,4-trimethoxybenzyl)pyrimido[5,4-d]pyrimidine-2,6-diamine]",< 100
17,"CCCN(C)c1nc(N(CCOC)CCOC)nc2c(N3CC(O)(C(F)(F)F)C3)nc(N(CCOC)CCOC)nc12 [Compound 13, 1-(2,6-bis(bis(2-methoxyethyl)amino)-8-(methyl(propyl)amino)pyrimido[5,4-d]pyrimidin-4-yl)-3-(trifluoromethyl)azetidin-3-ol]",< 100

# More lines, now with the values ahead:
row,IC50 [nM],SMILES
1,100 to 500,"COCCN(CCOC)c1nc(N2CCOC(C)C2)c2nc(N(CCOC)CCOC)nc(N3CCC(OC)CC3)c2n1 (centres unmarked) [Compound 87, N2,N2,N6,N6-tetrakis(2-methoxyethyl)-4-(4-methoxypiperidin-1-yl)-8-(2-methylmorpholino)pyrimido[5,4-d]pyrimidine-2,6-diamine]"
2,100 to 500,"COCCN(CCOC)c1nc(N2CCC(OC)C2)c2nc(N(CCOC)CCOC)nc(N3CCC(OC)CC3)c2n1 (centres unmarked) [Compound 80, N2,N2,N6,N6-tetrakis(2-methoxyethyl)-4-(4-methoxypiperidin-1-yl)-8-(3-methoxypyrrolidin-1-yl)pyrimido[5,4-d]pyrimidine-2,6-diamine]"
3,500 to 1000,"COCCOC1CCN(c2nc(N(CCOC)CCOC)nc3c(N4CCC(OC)CC4)nc(N(CCOC)CCOC)nc23)CC1 [Compound 202, 4-(4-(2-methoxyethoxy)piperidin-1-yl)-N2,N2,N6,N6-tetrakis(2-methoxyethyl)-8-(4-methoxypiperidin-1-yl)pyrimido[5,4-d]pyrimidine-2,6-diamine]"
4,100 to 500,"COCCN(CCOC)c1nc(N2CCC(OC)CC2)c2nc(N(CCOC)CCOC)nc(N3CCCC3)c2n1 [Compound 89, N2,N2,N6,N6-tetrakis(2-methoxyethyl)-4-(4-methoxypiperidin-1-yl)-8-(pyrrolidin-1-yl)pyrimido[5,4-d]pyrimidine-2,6-diamine]"
5,< 100,"COCCN(CCOC)c1nc(N2CC(O)(C(F)(F)F)C2)c2nc(N(CCOC)CCOC)nc(N3CCC(OC)CC3)c2n1 [Compound 111, 1-(2,6-bis(bis(2-methoxyethyl)amino)-8-(4-methoxypiperidin-1-yl)pyrimido[5,4-d]pyrimidin-4-yl)-3-(trifluoromethyl)azetidin-3-ol]"
6,< 100,"COCCN(CCOC)c1nc(N2CCC(OC)CC2)c2nc(N(CCOC)CCOC)nc(N3CCC(F)CC3)c2n1 [Compound 108, 4-(4-fluoropiperidin-1-yl)-N2,N2,N6,N6-tetrakis(2-methoxyethyl)-8-(4-methoxypiperidin-1-yl)pyrimido[5,4-d]pyrimidine-2,6-diamine]"
7,500 to 1000,"COCCN(CCOC)c1nc(N2CCN(c3ncccn3)CC2)c2nc(N(CCOC)CCOC)nc(N3CCC(OC)CC3)c2n1 [Compound 119, N2,N2,N6,N6-tetrakis(2-methoxyethyl)-4-(4-methoxypiperidin-1-yl)-8-(4-(pyrimidin-2-yl)piperazin-1-yl)pyrimido[5,4-d]pyrimidine-2,6-diamine]"
8,100 to 500,"COCCN(CCOC)c1nc(N2CC[C@@H](OC)C2)c2nc(N(CCOC)CCOC)nc(N3CCC(OC)CC3)c2n1 [Compound 107, (R)-N2,N2,N6,N6-tetrakis(2-methoxyethyl)-4-(4-methoxypiperidin-1-yl)-8-(3-methoxypyrrolidin-1-yl)pyrimido[5,4-d]pyrimidine-2,6-diamine]"
9,100 to 500,"COCCN(CCOC)c1nc(N2CCC(F)C2)c2nc(N(CCOC)CCOC)nc(N3CCC(OC)CC3)c2n1 (centres unmarked) [Compound 104, 4-(3-fluoropyrrolidin-1-yl)-N2,N2,N6,N6-tetrakis(2-methoxyethyl)-8-(4-methoxypiperidin-1-yl)pyrimido[5,4-d]pyrimidine-2,6-diamine]"
